# Values quoted from earlier work as cited in PubChem BioAssay AID1259409 (Chemical Carcinogenesis Research Information System (CCRIS), 2018).
# Tested on: rodent chemically induced tumor inhibition, incidence and multiplicity
# Test: CCRIS tumor inhibitor studies
# Details: Dose [Inhibitor]: 0
structure (smiles),measurement,setting,value
CSC[C@H](N)C(=O)O,"tumour outcome (control, treated, inhibition, significance)","Carcinogen: 7,12-DIMETHYLBENZ[A]ANTHRACENE, 57-97-6, 0.005 MOL/KG DIET BEGINNING 2 WK PRIOR TO CARCINOGEN AND CONTINUED FOR STUDY DURATION (STUDY DURATION: 25 WK), Route [Inhibitor]: ORAL, Species: RAT, Strain/Sex: CD-1/FEMALE, Target Tissue: Type of Lesion: MAMMARY GLAND: ADENOCARCINOMA, Dose [Carcinogen]: 10 MG ONCE, Promoter: NONE USED","22/25 (88%), 19/25 (76%), 14%, not significant"
same,"tumour outcome (control, treated, inhibition, significance)","Carcinogen: 7,12-DIMETHYLBENZ[A]ANTHRACENE, 57-97-6, 0.015 MOL/KG DIET BEGINNING 1 WK POST CARCINOGEN AND CONTINUED FOR STUDY DURATION (STUDY DURATION: 25 WK), Route [Inhibitor]: ORAL, Species: RAT, Strain/Sex: CD-1/FEMALE, Target Tissue: Type of Lesion: MAMMARY GLAND: ADENOCARCINOMA, Dose [Carcinogen]: 10 MG ONCE, Promoter: NONE USED","23/30 (77%), 14/30 (47%), 39%, p<0.05"
same,"tumour outcome (control, treated, inhibition, significance)","Carcinogen: 7,12-DIMETHYLBENZ[A]ANTHRACENE, 57-97-6, 0.015 MOL/KG DIET BEGINNING 2 WK PRIOR TO CARCINOGEN AND CONTINUED 1 WK POST CARCINOGEN (STUDY DURATION: 25 WK), Route [Inhibitor]: ORAL, Species: RAT, Strain/Sex: CD-1/FEMALE, Target Tissue: Type of Lesion: MAMMARY GLAND: ADENOCARCINOMA, Dose [Carcinogen]: 10 MG ONCE, Promoter: NONE USED","23/30 (77%), 21/30 (70%), 9%, not significant"
same,"tumour outcome (control, treated, inhibition, significance)","Carcinogen: 7,12-DIMETHYLBENZ[A]ANTHRACENE, 57-97-6, 0.015 MOL/KG DIET BEGINNING 2 WK PRIOR TO CARCINOGEN AND CONTINUED FOR STUDY DURATION (STUDY DURATION: 25 WK), Route [Inhibitor]: ORAL, Species: RAT, Strain/Sex: CD-1/FEMALE, Target Tissue: Type of Lesion: MAMMARY GLAND: ADENOCARCINOMA, Dose [Carcinogen]: 10 MG ONCE, Promoter: NONE USED","22/25 (88%), 13/25 (52%), 41%, p<0.05"
C[C@]12CC[C@@H]3c4ccc(O)cc4CC[C@H]3[C@@H]1CC[C@@H]2O,"tumour outcome (control, treated, inhibition, significance)","Carcinogen: DIETHYLNITROSAMINE, 55-18-5, 0.5-1 MG IN PELLET IMPLANTED 1/MONTH FOR 26 WK BEGINNING 30 D POST CARCINOGEN TREATMENT. DOSING BEGAN SAME DAY OF ORC, Route [Inhibitor]: SUBCUTANEOUS, Species: MOUSE, Strain/Sex: B6C3F1/MALE, Target Tissue: Type of Lesion: LIVER: TUMOR, Dose [Carcinogen]: 2.5 UG/G BW IN SALINE ONCE, Promoter: NONE","19/30 (63%), 6/23 (26%), 59%, not significant"
same,"tumour outcome (control, treated, inhibition, significance)","Carcinogen: N-ETHYL-N-NITROSOUREA, 759-73-9, 0.1 MG PELLET IMPLANTED WITHIN 24 HR OF BIRTH AND REPLACED EVERY 2 MO (STUDY DURATION: 8 MO), Route [Inhibitor]: SUBCUTANEOUS IMPLANT, Species: RAT, Strain/Sex: WF X LE F1/FEMALE, Target Tissue: Type of Lesion: TRIGEMINAL NERVE: SCHWANNOMA, Dose [Carcinogen]: 40 MG/KG ONCE WITHIN 24 HR OF BIRTH, Promoter: NONE USED","14/19 (74%), 12/20 (60%), 19%, not calculated"
same,outcome,"Carcinogen: N-ETHYL-N-NITROSOUREA, 759-73-9, 0.1 MG PELLET IMPLANTED WITHIN 24 HR OF BIRTH AND REPLACED EVERY 2 MO (STUDY DURATION: 8 MO), Route [Inhibitor]: SUBCUTANEOUS IMPLANT, Species: RAT, Strain/Sex: WF X LE F1/MALE, Target Tissue: Type of Lesion: KIDNEY: TUMOR, Dose [Carcinogen]: 40 MG/KG ONCE WITHIN 24 HR OF BIRTH, Promoter: NONE USED","0/21 (0%), 7/22 (32%), -100%, not calculated"
same,"tumour outcome (control, treated, inhibition, significance)","Carcinogen: N-ETHYL-N-NITROSOUREA, 759-73-9, 0.1 MG PELLET IMPLANTED WITHIN 24 HR OF BIRTH AND REPLACED EVERY 2 MO (STUDY DURATION: 8 MO), Route [Inhibitor]: SUBCUTANEOUS IMPLANT, Species: RAT, Strain/Sex: WF X LE F1/MALE, Target Tissue: Type of Lesion: TRIGEMINAL NERVE: SCHWANNOMA, Dose [Carcinogen]: 40 MG/KG ONCE WITHIN 24 HR OF BIRTH, Promoter: NONE USED","19/21 (91%), 13/22 (59%), 35%, p<0.05"
same,"tumour outcome (control, treated, inhibition, significance)","Carcinogen: N-METHYL-N-NITROSOUREA, 684-93-5, 2.5 MG IN CHOLESTEROL PELLET IMPLANTED 2 WK PRIOR TO CARCINOGEN DOSE AND REPLACED EVERY 4 WK (STUDY DURATION: 36 WK), Route [Inhibitor]: SUBCUTANEOUS IMPLANT, Species: RAT, Strain/Sex: F344/FEMALE, Target Tissue: Type of Lesion: MAMMARY GLAND: CARCINOMA, Dose [Carcinogen]: 50 MG/KG BW ONCE, Promoter: NONE USED","10/20 (50%), 1/28 (4%), 92%, p<0.01"
same,"tumour outcome (control, treated, inhibition, significance)","Carcinogen: N-METHYL-N-NITROSOUREA, 684-93-5, 2.5 MG IN CHOLESTEROL PELLET IMPLANTED AT TIME OF CARCINOGEN DOSE AND REPLACED EVERY 4 WK (STUDY DURATION: 35 WK), Route [Inhibitor]: SUBCUTANEOUS IMPLANT, Species: RAT, Strain/Sex: F344/MALE, Target Tissue: Type of Lesion: MAMMARY GLAND: CARCINOMA, Dose [Carcinogen]: 50 MG/KG BW ONCE, Promoter: NONE USED","10?20 (50%), 7/16 (44%), 12%, not significant"
same,"tumour outcome (control, treated, inhibition, significance)","Carcinogen: N-METHYL-N-NITROSOUREA, 684-93-5, 20 UG IN SILASTIC CAPSULES FOR 3 WK IMPLANTED 2 WK POST CARCINOGEN TREATMENT (STUDY DURATION: 10 MO), Route [Inhibitor]: SUBCUTANEOUS, Species: RAT, Strain/Sex: LEWIS/FEMALE, Target Tissue: Type of Lesion: MAMMARY GLAND: TUMOR, Dose [Carcinogen]: 50 MG/KG BW ONCE AT 7 WK OF AGE","11/11 (100%), 8/11 (73%), 27%, not significant"
same,"tumour outcome (control, treated, inhibition, significance)","Carcinogen: N-METHYL-N-NITROSOUREA, 684-93-5, 30 MG IN SILASTIC CAPSULES FOR 3 WK IMPLANTED 2 WK POST CARCINOGEN TREATMENT (STUDY DURATION: 10 MO), Route [Inhibitor]: SUBCUTANEOUS, Species: RAT, Strain/Sex: LEWIS/FEMALE, Target Tissue: Type of Lesion: MAMMARY GLAND: TUMOR, Dose [Carcinogen]: 50 MG/KG BW ONCE AT 7 WK OF AGE","11/11 (100%), 2/12 (17%), 83%, p<0.001"
same,"tumour outcome (control, treated, inhibition, significance)","Carcinogen: N-METHYL-N-NITROSOUREA, 684-93-5, 100 UG IN SILASTIC CAPSULES FOR 2 WK IMPLANTED 2 WK POST CARCINOGEN TREATMENT (STUDY DURATION: 10 MO), Route [Inhibitor]: SUBCUTANEOUS, Species: RAT, Strain/Sex: LEWIS/FEMALE, Target Tissue: Type of Lesion: MAMMARY GLAND: TUMOR, Dose [Carcinogen]: 50 MG/KG BW ONCE AT 7 WK OF AGE","13/15 (87%), 7/16 (44%), 49%, p<0.05"
same,"tumour outcome (control, treated, inhibition, significance)","Carcinogen: N-METHYL-N-NITROSOUREA, 684-93-5, 100 UG IN SILASTIC CAPSULES FOR 3 WK IMPLANTED 2 WK POST CARCINOGEN TREATMENT (STUDY DURATION: 10 MO), Route [Inhibitor]: SUBCUTANEOUS, Species: RAT, Strain/Sex: LEWIS/FEMALE, Target Tissue: Type of Lesion: MAMMARY GLAND: TUMOR, Dose [Carcinogen]: 50 MG/KG BW ONCE AT 7 WK OF AGE","11/11 (100%), 2/12 (17%), 83%, p<0.001"
same,"tumour outcome (control, treated, inhibition, significance)","Carcinogen: N-METHYL-N-NITROSOUREA, 684-93-5, 200 UG IN SILASTIC CAPSULES FOR 1 WK IMPLANTED 2 WK POST CARCINOGEN TREATMENT (STUDY DURATION: 10 MO), Route [Inhibitor]: SUBCUTANEOUS, Species: RAT, Strain/Sex: LEWIS/FEMALE, Target Tissue: Type of Lesion: MAMMARY GLAND: TUMOR, Dose [Carcinogen]: 50 MG/KG BW ONCE AT 7 WK OF AGE","13/15 (87%), 3/15 (20%), 77%, p<0.01"
same,"tumour outcome (control, treated, inhibition, significance)","Carcinogen: N-METHYL-N-NITROSOUREA, 684-93-5, 200 UG IN SILASTIC CAPSULES FOR 3 WK IMPLANTED 2 WK POST CARCINOGEN TREATMENT (STUDY DURATION: 10 MO), Route [Inhibitor]: SUBCUTANEOUS, Species: RAT, Strain/Sex: LEWIS/FEMALE, Target Tissue: Type of Lesion: MAMMARY GLAND: TUMOR, Dose [Carcinogen]: 50 MG/KG BW ONCE AT 7 WK OF AGE","11/11 (100%), 2/12 (17%), 83%, p<0.001"
C[C@@]12C=Cc3occc3[C@H]1CC[C@@]13C[C@@H](CC[C@H]12)[C@@](O)(CO)C3,"tumour outcome (control, treated, inhibition, significance)","Carcinogen: 7,12-DIMETHYLBENZ[A]ANTHRACENE, 57-97-6, 0.2 G/KG OF DIET OF 50:50 MIXTURE OF KAHWEOL AND CAFESTOL FOR 14 WK BEGINNING 1 WK PRIOR TO CARCINOGEN TREATMENT (STU, Route [Inhibitor]: ORAL, Species: HAMSTER, Strain/Sex: SYRIAN/FEMALE, Target Tissue: Type of Lesion: BUCCAL POUCH: TUMOR, Dose [Carcinogen]: 0.5% SOLUTION IN MINERAL OIL PAINTED ON LEFT BUCCAL POUCH 3/WK FOR 13 WK, Promoter: NONE USED","14/14 (100%), 14/14 (100%), 0%, not significant"
same,"tumour outcome (control, treated, inhibition, significance)","Carcinogen: 7,12-DIMETHYLBENZ[A]ANTHRACENE, 57-97-6, 2 G/KG OF DIET OF 50:50 MIXTURE OF KAHWEOL AND CAFESTOL FOR 14 WK BEGINNING 1 WK PRIOR TO CARCINOGEN TREATMENT (STUDY, Route [Inhibitor]: ORAL, Species: HAMSTER, Strain/Sex: SYRIAN/FEMALE, Target Tissue: Type of Lesion: BUCCAL POUCH: TUMOR, Dose [Carcinogen]: 0.5% SOLUTION IN MINERAL OIL PAINTED ON LEFT BUCCAL POUCH 3/WK FOR 13 WK, Promoter: NONE USED","14/14 (100%), 14/15 (93%), 7%, not significant"
